The source of these data is US20110306663A1 (Baylor Research Institute, priority 2010, published 2011).

In data set [1] the test system is patients with APBD and GBE1 deficiency. The data set can be described thus: Motion capture gait analysis, open-label triheptanoin study. The format is in vivo, human. As to the method: (§1) Ages ranged from 51-66 years and all were Ashkenazi Jewish. Three patients were able to walk independently, one walked with the help of a walker and a 5th patient was wheelchair bound.
(§2) Baseline evaluation based on the criteria described in Table I, herein below was performed every 3 months.
(§3) The outcome measures included: (i) the 6 minutes walk test and (ii) motion capture gait analysis and (iii) SF-36 Health Survey Questionnaire. […] Maximal improvement seemed to occur within the first 6 months of treatment (FIG. 2). […] Physical Function score increased in 4/5 patients on the SF-36 health survey questionnaire.

For data set [2] the test system is unchanged. Briefly: SF-36 Health Survey Questionnaire, open-label triheptanoin study. Format: in vivo, human. The method, then: as §1, §2, §3
The subject of data set [3] is patients with long chain fatty acid oxidation defects. The settings on record: 30% to 35% of total daily caloric intake; cited from earlier work.
In data set [4] the test system is patients with APBD and GBE1 deficiency. Briefly: 6 minutes walk test, open-label triheptanoin study. Format: in vivo, human. As to the method:
as §1, §2, §3

The test system is the same in data set [5]. The data set can be described thus: Adverse event assessment, open-label triheptanoin study. Conditions: 5 patients; for Adverse events (AE): mean 8.2 months of treatment. Format: in vivo, human. The method, then:
as §1
(§4) In the event of an organic acid abnormality such as an excessive urinary excretion of propionic and/or methylmalonic acid occur, biotin and/or vitamin B12 respectively were added to the regimen and normalization of the organic acid and acylcarnitine profile was verified. Should that not be sufficient the dose was reduced until normalization occurs. If still abnormal, patient was be excluded from the study.
Two adverse events not related to the triheptanoin were a broken ankle in one patient and wound treatment in another. […] Safety was also monitored throughout the study by urinary organic acids and blood acylcarnitine profile analyses. Changes in metabolic tests related the ingestion of triheptanoin were identified.

Data set [6] relates to patient with pyruvate carboxylase deficiency. Conditions: one patient; cited from earlier work.
Data set [7] has as its system patient with adult-onset acid maltase deficiency (Pompe disease). The settings on record: one patient; cited from earlier work.
For data set [8], the system named is patients with APBD and GBE1 deficiency. Briefly: Urinary organic acids and blood acylcarnitine profile analyses. Format: in vivo, human. As to the method:
as §4
Safety was also monitored throughout the study by urinary organic acids and blood acylcarnitine profile analyses.

Where [9] appears, read: 5 patients, within 6 months of treatment.

Several values for one entry are separate records, joined by “and”; a condition that tells them apart may be missing. Equal values may be shown once.

As for `CCCCCCC(=O)OCC(COC(=O)CCCCCC)OC(=O)CCCCCC` [triheptanoin, glyceryl triheptanoate], in data set [1] (3 patients who were able to walk unaided), the “Gait analysis: cadence, support time, stride length, step length and walking speed” value is “improvement”. Also, the Gait analysis result in data set [1] (setting [9]) was “stability or slight improvement”. In addition, in data set [2] (5 patients), the “Patients with increased Physical Function score on the SF-36” value is recorded as 4/5. The “SF-36 Health Survey Questionnaire scores” value in data set [2] (FIG. 3) is recorded as “tended to improve in parallel with motor score”. Further, in data set [3], the “Clinical outcome of diet treatment” value was “decreased episodes of rhabdomyolysis, improvement in pain and cardiac function”; the Propionyl overload result is on record as “No propionyl overload occurred”. The “Six minute walk test distance on treatment” value in data set [4] (5 patients, mean ± SD after treatment (from 1246±642), p=0.06) is on record as 1376±692 feet. Moreover, the “Six minute walk test mean increase” value in data set [4] (5 patients, triheptanoin oil 1-2 g/fg/24 hours in 4 divided doses, 1246±642 at start, p=0.06) came out at 130 feet. For the same compound, the “Distance walked during 6 minutes (6 minutes walk test)” value in data set [4] (setting [9]) was “significant improvement”. Also, the “Time of maximal improvement in 6-minute walk test” value in data set [4] (FIG. 2) is listed as at most 6 months. Further, in data set [4] (mean follow up of 8.5 months, n=5, p=0.06), the “6-minute walk test mean improvement” value came to 10%. For the same compound, the “6-minute walk test improvement, one patient” value in data set [4] (one patient, 25 months time point) was 126 feet and 9.5%. For the same compound, the “Motor performance and quality of life” value in data set [4] (open-label study, 5 patients) is on record as “evidence of improved motor performance as well as quality of life”. In addition, in data set [5], the “AE remotely linked to triheptanoin” value was “rectal pain reported by one patient”, the “Serious AE” value is listed as “no serious AE related to triheptanoin oil” and the “Adverse events (AE)” value is “No adverse events (AE) were reported”. For the same compound, the “Adverse events (AE)” value in data set [5] (listed as triheptanoin oil) is listed as “No significant adverse events occurred”. Further, the “Glutamine and GABA in the CSF” value in data set [6] is reported as “normalization”. For the same compound, the Clinical response entry in data set [7] was “markedly improved”. Further, the Catabolism of triheptanoin entry in data set [8] (conclusion from urine and plasma findings) is on record as “catabolized completely without accumulation of secondary metabolites”. In data set [8] (urinary organic acids), the “Mitochondrial overload from triheptanoin-derived metabolites” value was “no evidence of mitochondrial overload”. The “Urinary excretion of derivatives of heptanoate oxidation (pimelate, 3-hydroxypentanoate, 3-ketopentanoate, 3-hydroxypropionate, methylcitrate)” value in data set [8] (urine) is given as “detected”.
